From US8686165B2, “Process for preparation of taxane derivatives” (Emcure Pharmaceuticals Limited, priority 2009, dated 2014) come the findings set out here.

Counter-ions that a name gives are not always drawn. Like-named read-outs stand apart in the source and are kept apart here.

Series [1] in a line: Comparative stability profile of docetaxel in solution at 35° C. with and without aluminum sulphate. Particulars: for Epi-Docetaxel / Docetaxel: solution at 35° C., trihydrate; for Epi-Docetaxel: 360 min (6 hours); for Docetaxel: 360 min. It is filed as physicochemical. As for the experimental part: The docetaxel solution prepared according to present invention had 0.19% of epi-docetaxel after 6 hours.

Assay in series [2]: as above
It is filed as physicochemical.

The format of series [3] is physicochemical. The conditions noted are these: 25 ± 2° C./60 ± 5% RH.

With `CC(=O)O[C@@]12CO[C@@H]1C[C@H](O)[C@@]1(C)C(=O)[C@H](O)C3=C(C)[C@@H](OC(=O)[C@H](O)[C@@H](NC(=O)OC(C)(C)C)c4ccccc4)C[C@@](O)([C@@H](OC(=O)c4ccccc4)[C@H]21)C3(C)C.O.O.O` [Example 1, Docetaxel trihydrate], the “reduction in formation of the epi-isomer degradation product” value in series [1] (compared to a solution prepared without addition of a metal salt) is “almost a five-fold reduction”. The Epi-Docetaxel in series [1] amounted to 0.19%; in series [2] (30 min, trihydrate), 0.11%; in series [2] (60 min, trihydrate) it was 0.12%; in series [2] (360 min (6 hours), listed as docetaxel solution prepared according to present invention, trihydrate) it was 0.19%; in series [2] (Initial), 0.11%. Moreover, the Docetaxel in series [1] came to 99.38%; in series [2] (30 min, trihydrate), 99.62%; in series [2] (60 min, trihydrate), 99.50%; in series [2] (Initial), 99.68%.

Consider `CC(=O)O[C@@]12CO[C@@H]1C[C@H](O)[C@@]1(C)C(=O)[C@H](O)C3=C(C)[C@@H](OC(=O)[C@H](O)[C@@H](NC(=O)OC(C)(C)C)c4ccccc4)C[C@@](O)([C@@H](OC(=O)c4ccccc4)[C@H]21)C3(C)C.O.O.O` [Example 6, Docetaxel trihydrate], for which the Epi-Docetaxel in series [1] came out at 0.86%; in series [2] (30 min, trihydrate) it was 0.23%; in series [2] (60 min, trihydrate), 0.34%; in series [2] (360 min (6 hours), listed as docetaxel solution prepared without using aluminum sulfate, trihydrate), 0.86%; in series [2] (Initial), 0.11%. Besides, the Docetaxel worked out at 98.81% in series [1]; 99.51% in series [2] (30 min, trihydrate); 98.95% in series [2] (60 min, trihydrate); 99.68% in series [2] (Initial).

With `CC(=O)O[C@@]12CO[C@@H]1C[C@H](O)[C@@]1(C)C(=O)[C@H](O)C3=C(C)[C@@H](OC(=O)[C@H](O)[C@@H](NC(=O)OC(C)(C)C)c4ccccc4)C[C@@](O)([C@@H](OC(=O)c4ccccc4)[C@H]21)C3(C)C.O.O.O` [Example 2, Docetaxel trihydrate], the results for the 7-Epi-docetaxel in series [3] (1 Month), in series [3] (2 Month) and in series [3] (Initial) were 0.022%, 0.044% and 0.02%, respectively. Moreover, the “10-Deacetyl baccatin III” value in series [3] (1 Month) and in series [3] (2 Month) was 0.01% each time. For the same compound, the “Any individual unspecified unidentified impurity” value in series [3] (1 Month) stood at 0.076%; in series [3] (2 Month), 0.083%; in series [3] (Initial), 0.07%. Moreover, the Total impurities in series [3] (1 Month, listed as docetaxel preparing by a process of the present invention, trihydrate) worked out at 0.27%; in series [3] (1 Month, trihydrate), 0.27%; in series [3] (2 Month), 0.27%; in series [3] (Initial) it was 0.25%.

For the compound `CC(=O)O[C@@]12CO[C@@H]1C[C@H](O)[C@@]1(C)C(=O)[C@H](O)C3=C(C)[C@@H](OC(=O)[C@H](O)[C@@H](NC(=O)OC(C)(C)C)c4ccccc4)C[C@@](O)([C@@H](OC(=O)c4ccccc4)[C@H]21)C3(C)C` [Without potassium aluminum sulfate, docetaxel], in series [3] (1 Month), the “7-Epi-10-deacetyl baccatin III” value stood at 0.08%, the “7-Epi-10-oxo-10-deacetyl baccatin III” value amounted to 0.01%, the 7-Epi-10-oxo-Docetaxel came to 0.01% and the 7-Epi-docetaxel came out at 0.18%. In addition, in series [3] (1 Month), the “10-Deacetyl baccatin III” value was 0.07%, the “Any individual unspecified unidentified impurity” value turned out to be 0.07% and the Total impurities was 0.58%. Besides, the Total impurities in series [3] (1 Month, listed as docetaxel prepared without using potassium aluminum sulfate) is listed as 0.58%.
